For one data set, the target named is jack bean urease (Canavalia ensiformis, UniProt P07374). The data set can be described thus: biochemical. How it is done: The inhibitory activity of 1-(3-nitropyridin-2-yl)piperazine derivatives (5a-o; 7a-k) was assessed in vitro against urease with minor modifications using the indophenol method ([Al Azzam et al., 2022]; [Da Costa et al., 2022]). At first, 1 mM solution of a test compound was prepared in 10% DMSO followed by the preparation of the reaction mixture. The reaction mixture was prepared by adding 30 μL of reaction buffer (100 mmol/L of urea, 1 mmol/L of EDTA, 10 mmol/L of LiCl2, 10 mmol/L of KH2PO4; pH: 8.2), 50 μL of R1 (120 mmol/L phosphate buffer, 60 mmol/L sodium salicylate, 5 mmol/L sodium nitroprusside, 1 mmol/L EDTA and 5 KU/L urease), 10 μL of substrate (1 mM urea), and 10 μL of test compound in triplicate in a 96-well plate. After 5 min of incubation at ambient temperature, 70 μL of R2 (120 mmol/L phosphate buffer, 400 mmol/L sodium hydroxide, and 10 mmol/L sodium hypochlorite) was added to the reaction mixture ([Rauf et al., 2013]). After another incubation period of 10 min at room temperature, the absorbance was measured using a microplate reader (Bio-Tek, United States) at a particular wavelength of 630 nm. […] The following equation was used to determine the percentage of inhibition for each test compound. Percentage inhibition=100–Absorbance of test compound/ Absorbance of negative control×100
The IC50 values of test compounds (5a-o; 7a-k) at various concentrations were determined by analyzing the data, obtained from in vitro urease inhibitory assay, by GraphPad Prism version 8.0.2 (GraphPad, California, United States).

A further data set concerns human blood cells. The data set can be described thus: In vitro hemocompatibility screening (hemolysis). The data set is classed as cell-based. As to conditions: hemolysis percentage at 0.5 mg/mL and 1 mg/mL nearer to that of PBS. How it is done: 1-(3-nitropyridin-2-yl)piperazine 3 and its derivatives (5b, 5c, 5i; 7e, 7h) were analyzed for hemolysis activity due to their remarkable urease inhibition potential. […] Experimental data on hemolysis percentage have been depicted in Figure 5.
Hemolysis is the rupturing of the cell membrane of red blood cells that causes the expulsion of hemoglobin into the blood plasma. To analyze the effects of 1-(3-nitropyridin-2-yl)piperazine 3 and its derivatives (5b, 5c, 5i; 7e, 7h) on human blood, a hemolysis analysis was carried out (Supplementary Figure S69). About 5 mL fresh sample of human blood was collected from a volunteer and transferred to a vacutainer tube containing EDTA to prevent coagulation. The ultracentrifugation of the blood sample was carried out at 3,000 rpm for 20 min and the separated plasma was discarded. The blood cells were washed about three times by using a double volume of phosphate buffer solution (PBS) (pH = 7.4). […] To quantify hemoglobin in test samples, the absorbance of the supernatant was measured at 540 nm ([Munawwar et al., 2023]). From the absorbance value, the hemolysis percentage was determined by the following formula: Hemolysis %=Absorbance of test sample−Absorbance of negative control/[…]

Entries after “also recorded” stand apart in the source; their conditions may differ.

jack bean urease, sequence (P07374 whole entry, looked up): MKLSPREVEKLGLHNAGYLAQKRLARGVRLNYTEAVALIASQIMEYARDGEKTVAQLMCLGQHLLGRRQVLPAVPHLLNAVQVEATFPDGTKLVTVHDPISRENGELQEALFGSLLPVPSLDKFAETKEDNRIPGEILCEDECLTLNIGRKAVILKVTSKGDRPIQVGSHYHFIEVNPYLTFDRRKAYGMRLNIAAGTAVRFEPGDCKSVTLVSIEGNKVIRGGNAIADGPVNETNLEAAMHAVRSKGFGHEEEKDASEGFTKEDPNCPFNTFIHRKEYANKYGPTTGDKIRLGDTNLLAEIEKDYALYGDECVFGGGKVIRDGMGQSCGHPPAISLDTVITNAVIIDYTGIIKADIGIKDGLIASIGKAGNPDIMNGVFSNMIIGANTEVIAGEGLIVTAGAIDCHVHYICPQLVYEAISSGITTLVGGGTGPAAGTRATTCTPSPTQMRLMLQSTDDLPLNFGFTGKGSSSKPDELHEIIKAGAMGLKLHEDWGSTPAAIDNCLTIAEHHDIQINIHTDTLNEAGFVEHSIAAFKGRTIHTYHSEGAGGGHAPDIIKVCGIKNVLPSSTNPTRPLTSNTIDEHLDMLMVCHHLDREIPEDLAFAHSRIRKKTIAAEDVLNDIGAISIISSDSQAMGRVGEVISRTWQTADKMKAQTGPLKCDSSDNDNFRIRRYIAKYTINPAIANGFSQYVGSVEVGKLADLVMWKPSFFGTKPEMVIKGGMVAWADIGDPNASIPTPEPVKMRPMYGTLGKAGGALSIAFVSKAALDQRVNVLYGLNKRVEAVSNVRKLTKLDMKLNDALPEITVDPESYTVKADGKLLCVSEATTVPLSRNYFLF

The term melting point denotes the temperature, or range, at which the solid turns liquid. One may read the IC50 as the concentration that gives 50% inhibition. `O=C(CN1CCN(c2ncccc2[N+](=O)[O-])CC1)Nc1ccc([N+](=O)[O-])cc1` [5j, N-(4-Nitrophenyl)-2-(4-(3-nitropyridin-2-yl)piperazin-1-yl)acetamide] returned a melting point of 145 to 146 °C. For the same compound, half-maximal inhibition at jack bean urease (IC50) was put at 4.19 ± 0.41 µM.

As to `CC(C(=O)Nc1ccccc1)N1CCN(c2ncccc2[N+](=O)[O-])CC1` (centres unmarked) [7a, 2-(4-(3-Nitropyridin-2-yl)piperazin-1-yl)-N-phenylpropanamide], the melting point was in the range of 92 to 94 °C. For the same compound, the IC50 at jack bean urease was 7.41 ± 0.44 µM.

Turning to `COc1ccc(NC(=O)CN2CCN(c3ncccc3[N+](=O)[O-])CC2)cc1` [5o, N-(4-Methoxyphenyl)-2-(4-(3-nitropyridin-2-yl)piperazin-1-yl)acetamide], the melting point is 107 to 108 °C. The same compound returned a concentration for half-maximal inhibition (IC50) on jack bean urease of 5.21 ± 0.47 µM.

`Cc1ccc(NC(=O)CN2CCN(c3ncccc3[N+](=O)[O-])CC2)cc1` [5m, 2-(4-(3-Nitropyridin-2-yl)piperazin-1-yl)-N-(para-tolyl)acetamide] returned a melting point of 112 to 113 °C. Further, inhibition at jack bean urease was half-maximal at 9.37 ± 0.4 µM (IC50).

The compound `CC(C(=O)Nc1ccc([N+](=O)[O-])cc1)N1CCN(c2ncccc2[N+](=O)[O-])CC1` (centres unmarked) [7g, N-(4-Nitrophenyl)-2-(4-(3-nitropyridin-2-yl)piperazin-1-yl)propanamide] showed a melting point of 159 to 161 °C. The compound further had an IC50 against jack bean urease of 6.13 ± 0.4 µM.

In turn, `O=C(CN1CCN(c2ncccc2[N+](=O)[O-])CC1)Nc1ccc(Cl)cc1` [5d, N-(4-Chlorophenyl)-2-(4-(3-nitropyridin-2-yl)piperazin-1-yl)acetamide] displayed a melting point of 99 to 100 °C. This compound also showed an IC50 at jack bean urease of 8.25 ± 0.41 µM.

The compound `CC(C(=O)Nc1cccc([N+](=O)[O-])c1)N1CCN(c2ncccc2[N+](=O)[O-])CC1` (centres unmarked) [7f, N-(3-Nitrophenyl)-2-(4-(3-nitropyridin-2-yl)piperazin-1-yl)propanamide] displayed a melting point of 120 to 121 °C. Moreover, at jack bean urease, the IC50 stood at 7.66 ± 0.37 µM.

Turning to `Cc1ccccc1NC(=O)CN1CCN(c2ncccc2[N+](=O)[O-])CC1` [5k, 2-(4-(3-Nitropyridin-2-yl)piperazin-1-yl)-N-(ortho-tolyl)acetamide], the melting point was 105 to 106 °C. This compound came in with an IC50 against jack bean urease of 14.1 ± 0.67 µM.

The compound `COc1ccccc1NC(=O)C(C)N1CCN(c2ncccc2[N+](=O)[O-])CC1` (centres unmarked) [7j, N-(2-Methoxyphenyl)-2-(4-(3-nitropyridin-2-yl)piperazin-1-yl)propanamide] yielded a melting point of 108 to 110 °C. Further, on jack bean urease, the IC50 was found to be 5.32 ± 0.41 µM.

`Cc1ccccc1NC(=O)C(C)N1CCN(c2ncccc2[N+](=O)[O-])CC1` (centres unmarked) [7h, N-(ortho-Tolyl)-2-(4-(3-nitropyridin-2-yl)piperazin-1-yl)propanamide] returned a melting point of 90 to 92 °C. In addition, in the data set with human blood cells, the “biocompatibility in human blood cells (hemolysis percentage)” value is on record as “more biocompatible; also recorded: good biocompatibility”. In addition, at jack bean urease, half-maximal inhibition (IC50) required 3.01 ± 0.45 µM.

The compound `O=C(CN1CCN(c2ncccc2[N+](=O)[O-])CC1)Nc1ccccc1Cl` [5b, N-(2-Chlorophenyl)-2-(4-(3-nitropyridin-2-yl)piperazin-1-yl)acetamide] yielded an IC50 against jack bean urease of 2 ± 0.73 µM.

Turning to `Cc1cccc(NC(=O)CN2CCN(c3ncccc3[N+](=O)[O-])CC2)c1` [5l, 2-(4-(3-Nitropyridin-2-yl)piperazin-1-yl)-N-(meta-tolyl)acetamide], the melting point was in the range of 95 to 96 °C. This compound also returned an IC50 at jack bean urease of 7.14 ± 0.46 µM.

`COc1ccccc1NC(=O)CN1CCN(c2ncccc2[N+](=O)[O-])CC1` [5n, N-(2-Methoxyphenyl)-2-(4-(3-nitropyridin-2-yl)piperazin-1-yl)acetamide] registered a melting point of 120 to 121 °C. Also, half-maximal inhibition at jack bean urease (IC50) required 5.33 ± 0.44 µM.

As to `O=C(CN1CCN(c2ncccc2[N+](=O)[O-])CC1)Nc1ccccc1` [5a, 2-(4-(3-Nitropyridin-2-yl)piperazin-1-yl)-N-phenylacetamide], the melting point fell in the range of 79 to 80 °C. This compound showed an IC50 against jack bean urease of 3.58 ± 0.84 µM.

As to `CC(C(=O)Nc1ccc(Cl)cc1)N1CCN(c2ncccc2[N+](=O)[O-])CC1` (centres unmarked) [7c, N-(4-Chlorophenyl)-2-(4-(3-nitropyridin-2-yl)piperazin-1-yl)propanamide], the melting point is 57 to 59 °C. Besides, the IC50 against jack bean urease turned out to be 7.38 ± 0.37 µM.

On to `Cc1ccc(NC(=O)C(C)N2CCN(c3ncccc3[N+](=O)[O-])CC2)cc1` (centres unmarked) [7i, N-(para-Tolyl)-2-(4-(3-nitropyridin-2-yl)piperazin-1-yl)propanamide], for which the melting point lay within 88 to 89 °C. The midpoint of inhibition at jack bean urease, the IC50, lay at 5.65 ± 0.4 µM.

Consider `CC(C(=O)Nc1ccccc1[N+](=O)[O-])N1CCN(c2ncccc2[N+](=O)[O-])CC1` (centres unmarked) [7e, N-(2-Nitrophenyl)-2-(4-(3-nitropyridin-2-yl)piperazin-1-yl)propanamide], for which the “biocompatibility in human blood cells (hemolysis percentage)” value in the data set with human blood cells was “more biocompatible; also recorded: good biocompatibility”. Inhibition on jack bean urease was half-maximal at 2.24 ± 1.63 µM (IC50).

Take `O=[N+]([O-])c1cccnc1N1CCNCC1` [compound 3, 1-(3-Nitropyridin-2-yl)piperazine]: half-maximal inhibition against jack bean urease (IC50) required 3.9 ± 1.91 µM.

With `CC(C(=O)Nc1cccc(Cl)c1)N1CCN(c2ncccc2[N+](=O)[O-])CC1` (centres unmarked) [7b, N-(3-Chlorophenyl)-2-(4-(3-nitropyridin-2-yl)piperazin-1-yl)propanamide], the melting point was in the range of 107 to 109 °C. The IC50 against jack bean urease came to 6.7 ± 0.37 µM.

On to `O=C(CN1CCN(c2ncccc2[N+](=O)[O-])CC1)Nc1cccc([N+](=O)[O-])c1` [5i, N-(3-Nitrophenyl)-2-(4-(3-nitropyridin-2-yl)piperazin-1-yl)acetamide], for which the melting point was 139 to 141 °C. The compound further showed an IC50 against jack bean urease of 2.56 ± 0.55 µM.

Turning to `O=C(CN1CCN(c2ncccc2[N+](=O)[O-])CC1)Nc1cccc(Br)c1` [5f, N-(3-Bromophenyl)-2-(4-(3-nitropyridin-2-yl)piperazin-1-yl)acetamide], the melting point is 101 to 102 °C. At jack bean urease, 5.24 ± 0.45 µM corresponded to half-maximal inhibition (IC50).

On to `COc1ccc(NC(=O)C(C)N2CCN(c3ncccc3[N+](=O)[O-])CC2)cc1` (centres unmarked) [7k, N-(4-Methoxyphenyl)-2-(4-(3-nitropyridin-2-yl)piperazin-1-yl)propanamide], for which the melting point is 62 to 64 °C. In addition, the IC50 at jack bean urease turned out to be 5.95 ± 0.43 µM.

For the compound `O=C(CN1CCN(c2ncccc2[N+](=O)[O-])CC1)Nc1cccc(Cl)c1` [5c, N-(3-Chlorophenyl)-2-(4-(3-nitropyridin-2-yl)piperazin-1-yl)acetamide], the melting point lay in the range of 71 to 73 °C. On jack bean urease, the IC50 came to 2.13 ± 0.82 µM.

As for `O=C(CN1CCN(c2ncccc2[N+](=O)[O-])CC1)Nc1ccccc1[N+](=O)[O-]` [5h, N-(2-Nitrophenyl)-2-(4-(3-nitropyridin-2-yl)piperazin-1-yl)acetamide], the melting point was 113 to 115 °C. Moreover, at jack bean urease, the IC50 stood at 7.12 ± 0.39 µM.

For `O=C(CN1CCN(c2ncccc2[N+](=O)[O-])CC1)Nc1ccc(Br)cc1` [5g, N-(4-Bromophenyl)-2-(4-(3-nitropyridin-2-yl)piperazin-1-yl)acetamide], the melting point is 115 to 116 °C. At jack bean urease, this compound displayed an IC50 of 8.43 ± 0.41 µM.

In the case of `CC(C(=O)Nc1ccccc1Br)N1CCN(c2ncccc2[N+](=O)[O-])CC1` (centres unmarked) [7d, N-(2-Bromophenyl)-2-(4-(3-nitropyridin-2-yl)piperazin-1-yl)propanamide], the melting point was in the range of 91 to 94 °C. The compound further displayed an IC50 at jack bean urease of 6.74 ± 0.49 µM.

`O=C(CN1CCN(c2ncccc2[N+](=O)[O-])CC1)Nc1ccccc1Br` [5e, N-(2-Bromophenyl)-2-(4-(3-nitropyridin-2-yl)piperazin-1-yl)acetamide] yielded a melting point of 109 to 110 °C. At jack bean urease, this compound gave an IC50 of 4.47 ± 0.44 µM.

Source of the values: article PMC10965793, “Synthesis and biological evaluation of pyridylpiperazine hybrid derivatives as urease inhibitors” (Frontiers in Chemistry, 2024).
